Laboratory results taken from EP0947511A1, “Derivatives of phenoxy acetic acid and of phenoxymethyl tetrazole having antitumor activity” (F. HOFFMANN-LA ROCHE AG, priority 1998, dated 1999).

Key:
MCF-7ADR = assay: Radiosensitizing activity of MDM2 antagonistic compounds, MCF-7ADR cells; type: cell-based, human; conditions: MCF-7 ADR cells (mutant p53, high GST content)
Procedure: Biologic assay for radiosensitizing activity of MDM2 antagonistic compounds: Human tumor cell lines containing wild-type p53 and low levels of GST, such as MCF7 (breast carcinoma) or mutant p53 and a high GST content, such as MCF7 ADR (adriamycin-resistant breast carcinoma) are cultivated in RPMI medium, supplemented with 10% fetal calf serum to a semi-confluent state.
In order to determine the radiosensitizing activity of selected compounds on these cells a minimal toxic dose was determined as 2Gy with a ^137Cesium source at room temperature. Following irradiation of monolayer cells in exponential growth phase with 2 Gy, cells were incubated with various concentrations of the selected compounds for 2-6 h. Cells were trypsinized and seeded in appropriate dilutions into 6 well plates. Surviving cells were trypsinized after 12-13 days and cell number was determined by staining with trypane blue for living/dead cells. The protocol was established according to Khil et al., 1996, Int. J. Rad. Oncol. Biol. Phys. 34, 375-380.

HT29 cytosolic GST = HT29 cytosolic GST (Homo sapiens, UniProt P09211); assay: Spectrophotometric GST activity analysis; type: biochemical; conditions: inhibition of GST activity in HT29 cells
Procedure: GST catalyzes the conjugation of CDNB with glutathione and results in a CDNB-glutathione product with a strong molar absorption at 340 nm. The change of absorption is monitored for 5 min.
1 x 10^6 cells are collected and washed once with ice-cold phosphate-buffered saline at 1000 rpm for 10 min at 4°C. Cell pellets are resuspended in 200 µl ice-cold phosphate-buffered saline, and are sonicated for 2 min on ice. The sonicate is then centrifuged at 11750 g, 4°C for 15 min in an Eppendorf Centrifuge, and the supernatant is assayed for GST activity.

Chain of HT29 cytosolic GST (P09211 2-210): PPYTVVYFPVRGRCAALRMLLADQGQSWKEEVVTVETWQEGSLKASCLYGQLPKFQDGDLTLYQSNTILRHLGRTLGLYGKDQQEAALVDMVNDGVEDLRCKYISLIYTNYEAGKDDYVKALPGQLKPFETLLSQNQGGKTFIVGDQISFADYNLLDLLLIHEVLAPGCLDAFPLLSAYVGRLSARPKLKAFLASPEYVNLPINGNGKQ

O=C(O)COc1ccc(C(=O)/C=C/c2ccc(Cl)c(Cl)c2)cc1 [LSM 83177, 3,4-dichloro-4'-(carboxymethoxy)chalcone]
radiosensitization (MCF-7ADR): leads to a radiosensitization in MCF-7 ADR cells
IC-50 (HT29 cytosolic GST): 7,7 µg/ml

C=C(CC)C(=O)c1ccc(OCC(=O)O)c(Cl)c1Cl [ethacrynic acid, reference compound]
radiosensitization (MCF-7ADR): does not mediate any radiosensitization
